Reference: US20230003721A1, “MITOTHERAPEUTICS FOR THE TREATMENT OF BRAIN DISORDERS” (The University of Florida Research Foundation, Inc., priority 2019, published 2023)
Counter-ions that a name gives are not always drawn.

Columns and labels:
primary neurons [1] = details: 75 μM peroxide, 12.5 μM compound, 48 h
hippocampal neurons = test: Spontaneous excitatory postsynaptic currents (sEPSC), whole-cell patch-clamp; type: cell-based, mouse; details: 12.5 μM, 24 hr, DIV8
Method: Spontaneous excitatory postsynaptic currents in hippocampal neurons. […] The cultures were treated with selected compounds or 0.1% DMSO for 24 hr before measuring spontaneous excitatory postsynaptic currents (sEPSCs). Whole-cell patch-clamp recordings were performed using an Axon Multiclamp 700b amplifier, 1440A Digidata digitizer and data acquisition using pClamp software (Axon Instruments, Foster City, Calif.). The neurons were first recorded in a current clamp mode to monitor cell health. Only neurons with a resting membrane potential of less than −40 mV were used for further analysis. sEPSC recordings were made at 50 kHz and subsequently filtered at 5 kHz. The membrane potential was held at −70 mV during the recording. […] Once a neuron was patched, its seal was monitored, and if the transient resistance was less than […], the recording was not used for analysis. All experiments were performed at room temperature. The frequency and amplitude of sEPSCs were analyzed using the template match search (pClamp) and measured as a percentage of baseline level, calculated from the average of a 5 min baseline recording. The values of the amplitude and frequency of EPSCs for each recording was reported as an average from a 5 min recording period.

[2] = system: isolated forebrain mitochondria; test: ATP production of isolated mitochondria (luciferase-based kinetic assay); type: biochemical, mouse
Method: Isolation of mitochondria. For the ATP synthesis experiments of FIG. 6, forebrains from P0 pups were dissected as described above. 2×10^7 cells were harvested for high-purity mitochondrial isolation using the Qiagen QProteome kit. The mitochondrial pellet was resuspended in 500 μl mitochondria storage buffer (provided by kit) and kept on ice until further use.
ATP production of isolated forebrain mitochondria of P0 pups was measured by ATP Determination Kit (Molecular Probes). […] The reactions were initiated by the addition of 1 mM ADP (deprived of ATP contamination by adding 3 U/ml hexokinase to 10 mM of ADP in 50 mM Tris-HCl, 20 mM MgCl2 and 22 mM glucose, incubating the solution at 37° C. for 1 hr and heat inactivating the hexokinase at 100° C. for 3 min). Luminescence was recorded every 15-30 sec for 1 hr at 580±40 nm.

primary neurons [3] = test: Mitochondrial morphology and neurite area after functional modulators; type: cell-based, mouse; design: key to Neurite Area: non-significant (n.s.); details: for axonal mitochondrial circularity / neuritic area: after 48 h of treatment; for Mitochondrial Morphology / Neurite Area: significant change
Method: Mitochondrial morphology and neurite area measurements. Mitochondrial morphology and neurite area were quantified using methods described by Varkuti et al, 2020. Briefly, Cre-dependent mitochondrial targeted GFP2 (mito-GFP) ROSA26 knock-in mice were crossed with Ai14 (007908, The Jackson Laboratory) expressing cytosolic-tdTomato, and the forebrain of P0 pups were isolated and primary neurons were cultured as described above. AAV9 virus containing the iCRE sequence driven by the neuron specific CaMKII promoter was added to the cell culture at plating and 75% of the media replaced 4 h after plating. […] Z-projected images of the green channel were preprocessed (background subtraction: rolling ball, radius=3; median filtering: radius=1) and somatic mitochondria were removed (see details in Varkuti et al, Science Advances 6 (2020) eaaw8702). Red channel images were also preprocessed (tubeness filter, soma removal). Preprocessed images were segmented by GE Developer software (object-based, kernel size: 3). […] The length and circularity measurements for mitochondria were aggregated using the median and the area for neurites using the sum. After removing empty fields and outlier values from the fields, aggregated field values were averaged to well values (4 fields/well, 12 wells/compound). Robust Z-scores were calculated using DMSO-treated wells for each well ((mediancompound−medianDMSO)/median absolute deviationDMSO), well values were averaged for each compound.
A high-content assay was developed in parallel to monitor aspects of mitochondrial dynamics in primary cultured neurons that conditionally express (Cre recombinase dependent) mitochondrial-tagged GFP and cytosolic tdTomato reporters (Varkuti et al., 2020). We monitored two aspects of neuritic mitochondrial dynamics: (1) the health of mitochondria as measured by the average circularity of axonal mitochondria, since defective mitochondria targeted for mitophagy become circular in shape, and (2) the balance between fission/fusion measured by the average length of dendritic mitochondria. […] FIG. 19A illustrates the results of surveying a collection of functional modulators selected from 5 different structural clusters (FIG. 17), quantified as robust z-scores relative to DMSO-treated control neurons.

primary neurons [4] = test: Oxygen consumption rate (OCR) of permeabilized primary neurons; type: cell-based, mouse
Method: The oxygen consumption rate (OCR) of permeabilized neurons and isolated brain mitochondria (from 9-month old mice) was measured by the XF96 Extracellular Flux analyzer (Seahorse Bioscience). […] Prior to the start of the OCR measurement, all but 30 μl of Neurobasal A/B27 culture medium was removed from each well. Cells were washed twice with pre-warmed MAS-BSA assay medium (4 mg/ml fatty-acid free BSA, pH=7.2) and incubated in 180 μl at 37° C. for 5 min. Following the cartridge calibration, cells were loaded into the XF96 Extracellular Flux analyzer and further equilibrated for 10 min with two cycles of 3 min mixing and 2 min resting prior to the first measurement of basal respiration. OCR were measured at 37° C. under basal conditions followed by the sequential injection of pre-warmed 10× mitochondrial substrates/ADP (20 μl), oligomycin (22 μl), FCCP (24 μl), and rotenone/antimycin A (26 μl). The final concentrations of injected compounds were as follows: 10 mM mitochondrial substrates (pyruvate/malate or succinate), 1 mM ADP, 1.5 μM oligomycin, 3 μM FCCP, 2 μM rotenone/antimycin A. Saponin (25 μg/ml) was co-injected with substrate/ADP to permeabilize the cells and stimulate ADP-dependent respiration. Two baseline measurements were obtained prior to any injection and 2 response measurements were collected after each injection except for after FCCP addition which consisted of 1 measurement (9 total measurements in each assay). Each measurement cycle consisted of 2 min mixing, 2 min waiting, and 3 min data acquisition. This protocol allowed for sequential assessment of basal cell respiration, maximal mitochondrial respiratory capacity (State 3 with substrate/ADP), proton leak (State 4o with oligomycin), uncoupled maximal respiration (State 3U with FCCP) and non-mitochondrial respiration with the Complex I/Complex III inhibitors, rotenone/antimycin A. Cells were washed twice with MAS buffer to remove residue BSA contained in the assay medium, lysed in 50 μl lysis buffer (25 mM HEPES, 1 mM EGTA, 1 mM EDTA, 0.1% SDS, 1% NP-40, 1× protease and phosphatase inhibitor, pH 7.0 adjusted with NaOH) and total protein was determined by BCA assay. Oxygen consumption was normalized to total protein content as pmol O2/min/ug total protein.
Oxygen consumption rate (OCR) or extracellular acidification rate (ECAR) measurements from permeabilized neurons and isolated brain mitochondria were performed using the XF96 Extracellular Flux analyzer (Seahorse Bioscience). For assays using cultured neurons, primary neurons were dissociated from the forebrains of P0 pups, seeded at 1.9×10^4/well (PDL-coated XF96 plate), cultured to DIV13 and incubated with selected compounds or DMSO (0.1%) for 24 h. Prior to the start of the OCR measurement, all but 30 μl of Neurobasal A/B27 culture medium was removed from each well. Cells were washed twice with pre-warmed MAS-BSA assay medium (70 mM sucrose, 220 mM mannitol, 10 mM KH2PO4, 5 mM MgCl2, 2 mM HEPES and 1 mM EGTA, 4 mg/ml fatty-acid free BSA, pH=7.2 adjusted using KOH) and incubated in 180 ul MAS-BSA medium at 37° C. in a CO2-free incubator for 5 m. […] OCR and ECAR were measured at 37° C. under basal conditions followed by the sequential injection of pre-warmed 10× mitochondrial substrates/ADP (20 μl), oligomycin (22 μl), FCCP (24 μl), and rotenone/antimycin A (26 μl).

Drosophila model for AD = test: Drosophila model for AD: neuronal mitochondrial morphology; type: in vivo; details: cell bodies of neurons; 100 micromolar, 15 days-of-age
Description: To assay representative compounds in this example, we employed a Drosophila model for AD (X. Wang et al., Mol. Neurobiol. […] Flies expressing this toxic protein show: […] Drugs that show efficacy therefore: enlarge neuronal mitochondria (increased volume, increased surface area, increased length), reduce sphericity, and reduce the number of mitochondria compared to untreated Alzheimer's flies. The AD model flies were collected immediately after eclosion from the pupal case and transferred to food that was laced with drug at 100 micromolar concentration. The flies were aged to 15 days-of-age: this is when the mitochondrial pathology is very robust. We compared the morphology of mitochondria collected from these flies treated with drug and compared them to the mitochondria of flies that remained untreated.

primary cortical neurons = details: Ding et al. 2011; cited from earlier work
[5] = system: NRF2-mediated antioxidant response; details: WO2012149478A3; cited from earlier work

SMILES: CCCCOc1ccc(C(=O)CCN2CCCCC2)cc1 [DYCLONINE HYDROCHLORIDE]
- protection from peroxide (PO) induced mitochondrial fragmentation (primary neurons [1]): fully protected
- sEPSC frequency and amplitude (hippocampal neurons): increasing both frequency and amplitude
- ATP production kinetics, amplitude of single exponential fit ([2]; 12 μM, starting 20 min after addition, DMSO 22498±358): 28882±673
- ATP production of isolated mitochondria (direct effect) ([2]; 12.5 μM, within the 45-min measurement period, vs DMSO): significantly increased
- axonal mitochondrial circularity (primary neurons [3]): robust effects
- neuritic area (primary neurons [3]): increase
- Mitochondrial Morphology (primary neurons [3]): elongated
- Neurite Area (primary neurons [3]): increased
- State 3 and 3u respiration stimulated by either Complex I or Complex II substrates (primary neurons [4]; 10 μM, 24 h, cultured neurons): significant increase
- OCR (primary neurons [4]; oxygen consumption rate, significant change): increased

SMILES: O=c1c(-c2ccc(O)cc2)coc2cc(O)cc(O)c12 [GENISTEIN]
- Surface area of mitochondria, p (treated vs untreated) (Drosophila model for AD): p = 0.083
- ΔΨm in primary cortical neurons treated with Aβ peptide (primary cortical neurons): increase ΔΨm
- Mitochondrial Morphology (primary neurons [3]): elongated
- Neurite Area (primary neurons [3]): n.s.

SMILES: COC(=O)[C@@H]1[C@H]2C[C@H]3c4[nH]c5ccccc5c4CCN3C[C@@H]2CC[C@@H]1O [YOHIMBINE HYDROCHLORIDE]
- neuroprotection by inducing the NRF2-mediated antioxidant response [5]: neuroprotective
- axonal mitochondrial circularity (primary neurons [3]): robust effects
- neuritic area (primary neurons [3]): increase
- Mitochondrial Morphology (primary neurons [3]): elongated
- Neurite Area (primary neurons [3]): increased
